Source: ChEMBL document CHEMBL4699662, “Identification and structure-activity relationship studies of small molecule inhibitors of the human cathepsin D” (Bioorg Med Chem, 2021)

How the values were obtained:
[1] = in vitro; conditions: human, liver microsomes
[2] = in vitro; conditions: mouse, liver microsomes

Row | microsomal CLint at 0.5 h, 1 µM [1] [µL/min/mg] | microsomal CLint at 0.5 h, 1 µM [2] [µL/min/mg] | Compound
1 | 169 | 234 | COc1ccc(CCC(=O)NC(=N)N[C@H](CC2CCCCC2)C(=O)Nc2cc(S(=O)(=O)N(C)C)ccc2C)cc1OC
2 | 238 | 270 | Cc1ccc(S(=O)(=O)N(C)C)cc1NC(=O)[C@@H](CC1CCCCC1)NC(=N)NC(=O)Cc1cccc(C(F)(F)F)c1
3 | 287 | 326 | CNS(=O)(=O)c1ccc(C)c(NC(=O)[C@@H](CC2CCCCC2)NC(=N)NC(=O)Cc2ccc(F)c(OC)c2)c1
4 | 108 | 229 | COc1ccc(CC(=O)NC(=N)N[C@H](CC2CC2)C(=O)Nc2cc(S(N)(=O)=O)ccc2C)cc1OC
5 | 187 | 197 | COc1ccc(CC(=O)NC(=N)N[C@H](CSC)C(=O)Nc2cc(S(N)(=O)=O)ccc2C)cc1OC
6 | 212 | 212 | CNS(=O)(=O)c1ccc(C)c(NC(=O)[C@@H](CC2CCCCC2)NC(=N)NC(=O)Cc2cc(Cl)cc(OC)c2)c1
7 | 160 | 102 | COc1ccc(CC(=O)NC(=N)N[C@H](CC(C)C)C(=O)Nc2cc(S(N)(=O)=O)ccc2C)cc1OC
8 | 340 | 367 | COc1ccc(CC(=O)NC(=N)N[C@H](Cn2cc(-c3ccccc3)nn2)C(=O)Nc2cc(S(N)(=O)=O)ccc2C)cc1OC
9 | 179 | 354 | COc1ccc(CC(=O)NC(=N)N[C@H](CC2CCCCC2)C(=O)Nc2cc(S(=O)(=O)NC3CC3)ccc2C)cc1OC
10 | 326 | 232 | COc1ccc(CC(=O)NC(=N)N[C@H](CC2CCCCC2)C(=O)Nc2cc(S(=O)(=O)NC3CCCCC3)ccc2C)cc1OC
11 | 27.8 | 50.6 | COc1ccc(CC(=O)NC(=N)N[C@H](C)C(=O)Nc2cc(S(N)(=O)=O)ccc2C)cc1OC
12 | 253 | 272 | Cc1ccc(S(=O)(=O)N(C)C)cc1NC(=O)[C@@H](CC1CCCCC1)NC(=N)NC(=O)c1ccc2c(c1)OCCO2
13 | 179 | 104 | CNS(=O)(=O)c1ccc(C)c(NC(=O)[C@H](NC(=N)NC(=O)Cc2ccc(OC)c(OC)c2)C(C)C)c1
14 | 31.8 | 49.1 | COc1ccc(CC(=O)NC(=N)N[C@H](CN2CCOCC2)C(=O)Nc2cc(S(N)(=O)=O)ccc2C)cc1OC
15 | 171 | 149 | COc1ccc(CC(=O)NC(=N)N[C@H](Cc2ccccc2F)C(=O)Nc2cc(S(N)(=O)=O)ccc2C)cc1OC
16 | 175 | 187 | CNS(=O)(=O)c1ccc(C)c(NC(=O)[C@@H](CC2CCCCC2)NC(=N)NC(=O)Cc2cc(C(F)(F)F)cc(C(F)(F)F)c2)c1
17 | 241 | 241 | COc1ccc(CC(=O)NC(=N)N[C@H](CC2CCCCC2)C(=O)Nc2cc(S(=O)(=O)N(C)C)ccc2C)cc1F
18 | 259 | 259 | COc1ccc(CC(=O)NC(=N)N[C@H](CC2CCCCC2)C(=O)Nc2cc(S(=O)(=O)N(C(C)C)C(C)C)ccc2C)cc1OC
19 | 89.3 | 266 | CCC[C@@H](NC(=N)NC(=O)Cc1ccc(OC)c(OC)c1)C(=O)Nc1cc(S(N)(=O)=O)ccc1C
20 | 108 | 211 | COc1ccc(CC(=O)NC(=N)N[C@@H](C(=O)Nc2cc(S(N)(=O)=O)ccc2C)C(C)(C)C)cc1OC
21 | 138 | 178 | COc1ccc(CC(=O)NC(=N)N[C@@H](C(=O)Nc2cc(S(N)(=O)=O)ccc2C)C2=CCC=CC2)cc1OC

Row | microsomal CLint at 0.5 h, 1 µM [1] [µL/min/mg] | microsomal CLint at 0.5 h, 1 µM [2] [µL/min/mg] | Compound
22 | 251 | 239 | COc1ccc(CC(=O)NC(=N)N[C@H](Cc2cc3ccccc3s2)C(=O)Nc2cc(S(N)(=O)=O)ccc2C)cc1OC
23 | 336 | 176 | CNS(=O)(=O)c1ccc(C)c(NC(=O)[C@@H](CC2CCCCC2)NC(=N)NC(=O)Cc2ccc(Cl)c(Cl)c2)c1
24 | 248 | 238 | Cc1ccc(S(=O)(=O)N(C)C)cc1NC(=O)[C@@H](CC1CCCCC1)NC(=N)NC(=O)Cc1ccc(Cl)c(Cl)c1
25 | 174 | 179 | COc1ccc(CC(=O)NC(=N)N[C@H](C(=O)Nc2cc(S(N)(=O)=O)ccc2C)C2CCCC2)cc1OC
26 | 131 | 149 | CNS(=O)(=O)c1ccc(C)c(NC(=O)[C@@H](Cc2ccccc2)NC(=N)NC(=O)Cc2ccc(OC)c(OC)c2)c1
27 | 171 | 161 | COc1ccc(CC(=O)NC(=N)N[C@H](CC2CCCCC2)C(=O)Nc2cc(S(N)(=O)=O)ccc2C)cc1OC
28 | 277 | 240 | COc1ccc(CC(=O)NC(=N)N[C@H](CC2CCCCC2)C(=O)Nc2cc(S(=O)(=O)NC(C)C)ccc2C)cc1OC
29 | 221 | 227 | CCN(CC)S(=O)(=O)c1ccc(C)c(NC(=O)[C@@H](CC2CCCCC2)NC(=N)NC(=O)Cc2ccc(OC)c(OC)c2)c1
30 | 18 | 20 | COc1ccc(CC(=O)NC(=N)NCC(=O)Nc2cc(S(N)(=O)=O)ccc2C)cc1OC
31 | 204 | 226 | COc1ccc(CC(=O)NC(=N)N[C@H](CC2CCCCC2)C(=O)Nc2cc(S(=O)(=O)N(C)C)ccc2C)cc1OC
32 | 225 | 210 | COc1ccc(CC(=O)NC(=N)N[C@@H](C(=O)Nc2cc(S(N)(=O)=O)ccc2C)C2CCCCC2)cc1OC
33 | 239 | 220 | CNS(=O)(=O)c1ccc(C)c(NC(=O)[C@@H](CC2CCCCC2)NC(=N)NC(=O)Cc2cc(Cl)cc(C(F)(F)F)c2)c1
34 | 59.1 | 86.8 | CCOC[C@@H](NC(=N)NC(=O)Cc1ccc(OC)c(OC)c1)C(=O)Nc1cc(S(N)(=O)=O)ccc1C
35 | 6 | 7 | NC(=O)N1c2ccccc2C=Cc2ccccc21 [CARBAMAZEPINE]
36 | 271 | 212 | COc1ccc(CC(=O)NC(=N)N[C@H](CC2CCCCC2)C(=O)Nc2cc(S(=O)(=O)N3CCN(C)CC3)ccc2C)cc1OC
37 | 43.1 | 57.3 | COCC[C@@H](NC(=N)NC(=O)Cc1ccc(OC)c(OC)c1)C(=O)Nc1cc(S(N)(=O)=O)ccc1C
38 | 239 | 188 | CNS(=O)(=O)c1ccc(C)c(NC(=O)[C@@H](CC(C)C)NC(=N)NC(=O)Cc2ccc(OC)c(OC)c2)c1
39 | 212 | 237 | COc1ccc(CC(=O)NC(=N)N[C@H](CC2CCCCC2)C(=O)Nc2cc(S(=O)(=O)N3CCOCC3)ccc2C)cc1OC
40 | 26.9 | 47.2 | COC[C@@H](NC(=N)NC(=O)Cc1ccc(OC)c(OC)c1)C(=O)Nc1cc(S(N)(=O)=O)ccc1C
41 | 188 | 215 | CNS(=O)(=O)c1ccc(C)c(NC(=O)[C@@H](CC2CCCCC2)NC(=N)NC(=O)Cc2ccc(OC)c(C(F)(F)F)c2)c1
